Measured values published in patent US11912663B2, “Multi-targeted tyrosine kinase inhibitors and their pharmaceutical uses” (Shanghai AB PharmaTech Ltd., priority 2021, dated 2024).

Legend:
hERG potassium channels = hERG potassium channels (Homo sapiens (Human), UniProt Q12809); experiment: in vitro inhibitory effect of hERG, whole-cell patch clamp; type: cell-based; settings: whole-cell recording, room temperature
[1] = system: kidney cancer cell line (Caki-1); experiment: tumor cell proliferation inhibition (CTG), kidney cancer cell line; type: cell-based; settings: Homo sapiens, 72 hours, read-out: Caki-1 (renal cancer) IC50
[2] = system: lung cancer cell line (A549); experiment: tumor cell proliferation inhibition (CTG), lung cancer cell line; type: cell-based; settings: Homo sapiens, 72 hours
[3] = MTD toxicity test in rats; type: in vivo; settings: rat, in vivo
[4] = system: pancreatic cancer cell line (BXPC3); experiment: tumor cell proliferation inhibition (CTG), pancreatic cancer cell line; type: cell-based; settings: Homo sapiens, BXPC-3, 72 hours
[5] = system: hepatocellular carcinoma cell line (Hep3B 2.1-7); experiment: tumor cell proliferation inhibition (CTG), hepatocellular carcinoma cell line; type: cell-based; settings: Homo sapiens, 72 hours
[6] = system: leukemia cell line (K562); experiment: tumor cell proliferation inhibition (CTG), leukemia cell line; type: cell-based; settings: Homo sapiens, 72 hours
[7] = system: cervical cancer cell lines (Hela); experiment: tumor cell proliferation inhibition (CTG), cervical cancer cell line; type: cell-based; settings: Homo sapiens, 72 hours
[8] = system: gastric cancer cell line (SNU16); experiment: tumor cell proliferation inhibition (CTG), gastric cancer cell line; type: cell-based; settings: Homo sapiens, SNU-16, 72 hours, read-out: SUN16 IC50
prostatic cancer (PC-3) = experiment: tumor cell proliferation inhibition (CTG), PC-3; type: cell-based; settings: 72 hours
RET = RET (Homo sapiens (Human), UniProt P07949); experiment: kinase inhibition, Mobility-Shift Assay; type: biochemical; settings: 23 μM ATP
FGFR2 = FGFR2 (Homo sapiens (Human), UniProt P21802); experiment: kinase inhibition, Mobility-Shift Assay; type: biochemical; settings: 1.9 μM ATP
VEGFR3 (FLT4) = VEGFR3 (FLT4) (Homo sapiens (Human), UniProt P35916); experiment: kinase inhibition, Mobility-Shift Assay; type: biochemical; settings: 84 μM ATP
VEGFR1 (FLT1) = VEGFR1 (FLT1) (Homo sapiens (Human), UniProt P17948); experiment: kinase inhibition, Mobility-Shift Assay; type: biochemical; settings: 278 μM ATP
VEGFR2 (KDR) = VEGFR2 (KDR) (Homo sapiens (Human), UniProt P35968); experiment: kinase inhibition, Mobility-Shift Assay; type: biochemical; settings: VEGFR2, 92 μM ATP

hERG potassium channels, sequence (Q12809 whole entry): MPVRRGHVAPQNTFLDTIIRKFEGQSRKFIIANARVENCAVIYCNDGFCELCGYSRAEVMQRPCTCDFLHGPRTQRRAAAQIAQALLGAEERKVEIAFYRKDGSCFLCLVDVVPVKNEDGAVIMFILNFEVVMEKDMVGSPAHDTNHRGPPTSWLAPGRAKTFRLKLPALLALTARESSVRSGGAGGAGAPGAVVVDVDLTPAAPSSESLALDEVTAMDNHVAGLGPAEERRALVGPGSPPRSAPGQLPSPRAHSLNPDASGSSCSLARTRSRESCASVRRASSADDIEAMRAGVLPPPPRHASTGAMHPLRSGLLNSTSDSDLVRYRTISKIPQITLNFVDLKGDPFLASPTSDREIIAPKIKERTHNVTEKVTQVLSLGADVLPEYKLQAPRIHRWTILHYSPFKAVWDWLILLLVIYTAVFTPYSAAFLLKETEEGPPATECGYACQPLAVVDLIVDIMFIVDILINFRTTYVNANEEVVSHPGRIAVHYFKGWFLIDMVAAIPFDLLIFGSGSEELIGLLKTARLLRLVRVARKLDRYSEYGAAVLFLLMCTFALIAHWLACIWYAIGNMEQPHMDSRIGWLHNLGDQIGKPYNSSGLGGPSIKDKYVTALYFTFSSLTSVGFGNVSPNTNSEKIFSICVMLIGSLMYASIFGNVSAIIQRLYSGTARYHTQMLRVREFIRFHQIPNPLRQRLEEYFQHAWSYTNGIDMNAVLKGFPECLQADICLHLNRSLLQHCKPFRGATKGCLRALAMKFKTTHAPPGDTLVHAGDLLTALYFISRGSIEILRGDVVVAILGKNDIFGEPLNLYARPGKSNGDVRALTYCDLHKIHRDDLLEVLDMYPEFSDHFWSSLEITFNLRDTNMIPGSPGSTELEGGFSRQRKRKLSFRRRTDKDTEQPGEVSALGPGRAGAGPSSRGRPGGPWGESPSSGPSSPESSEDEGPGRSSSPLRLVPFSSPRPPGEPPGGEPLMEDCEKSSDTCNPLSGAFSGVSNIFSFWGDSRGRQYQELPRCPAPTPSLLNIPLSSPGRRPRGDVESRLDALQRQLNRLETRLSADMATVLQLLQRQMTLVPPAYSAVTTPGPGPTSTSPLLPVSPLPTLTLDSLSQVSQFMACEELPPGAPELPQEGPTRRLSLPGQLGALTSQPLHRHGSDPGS
VEGFR3 (FLT4), sequence (P35916 25-1363): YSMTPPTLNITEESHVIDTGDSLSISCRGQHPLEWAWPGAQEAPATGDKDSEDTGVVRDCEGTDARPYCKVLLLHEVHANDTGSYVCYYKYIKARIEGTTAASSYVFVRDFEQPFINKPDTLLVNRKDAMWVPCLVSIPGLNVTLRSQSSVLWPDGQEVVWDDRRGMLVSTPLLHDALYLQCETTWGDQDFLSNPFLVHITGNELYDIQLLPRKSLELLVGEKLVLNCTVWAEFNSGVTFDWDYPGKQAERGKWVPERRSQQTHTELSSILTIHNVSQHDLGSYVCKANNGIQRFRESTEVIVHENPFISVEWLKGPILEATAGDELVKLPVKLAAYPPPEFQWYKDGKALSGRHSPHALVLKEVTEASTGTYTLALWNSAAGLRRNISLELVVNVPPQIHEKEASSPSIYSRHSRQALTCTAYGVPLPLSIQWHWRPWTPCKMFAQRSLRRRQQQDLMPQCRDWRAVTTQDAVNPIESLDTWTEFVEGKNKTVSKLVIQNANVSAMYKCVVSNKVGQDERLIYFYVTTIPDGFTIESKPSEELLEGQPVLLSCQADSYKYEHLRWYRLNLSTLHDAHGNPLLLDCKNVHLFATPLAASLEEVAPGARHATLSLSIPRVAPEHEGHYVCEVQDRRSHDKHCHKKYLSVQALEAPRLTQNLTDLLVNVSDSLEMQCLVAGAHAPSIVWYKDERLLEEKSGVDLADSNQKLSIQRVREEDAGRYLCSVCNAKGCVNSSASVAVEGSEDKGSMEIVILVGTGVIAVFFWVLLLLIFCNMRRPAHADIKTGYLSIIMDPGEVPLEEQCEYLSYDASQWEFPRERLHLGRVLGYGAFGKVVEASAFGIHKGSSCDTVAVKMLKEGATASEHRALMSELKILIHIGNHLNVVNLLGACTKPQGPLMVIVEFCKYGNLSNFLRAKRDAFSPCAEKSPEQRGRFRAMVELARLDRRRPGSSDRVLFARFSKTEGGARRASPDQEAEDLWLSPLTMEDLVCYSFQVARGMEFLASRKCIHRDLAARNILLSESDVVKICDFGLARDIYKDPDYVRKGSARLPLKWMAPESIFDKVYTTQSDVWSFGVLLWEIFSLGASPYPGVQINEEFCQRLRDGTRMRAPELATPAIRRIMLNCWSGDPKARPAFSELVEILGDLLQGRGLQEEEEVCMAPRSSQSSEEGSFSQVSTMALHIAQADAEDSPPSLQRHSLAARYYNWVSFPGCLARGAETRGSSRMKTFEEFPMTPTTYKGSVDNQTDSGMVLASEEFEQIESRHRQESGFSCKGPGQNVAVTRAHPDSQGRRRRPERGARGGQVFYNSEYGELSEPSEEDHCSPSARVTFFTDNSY
VEGFR1 (FLT1), sequence (P17948 27-1338): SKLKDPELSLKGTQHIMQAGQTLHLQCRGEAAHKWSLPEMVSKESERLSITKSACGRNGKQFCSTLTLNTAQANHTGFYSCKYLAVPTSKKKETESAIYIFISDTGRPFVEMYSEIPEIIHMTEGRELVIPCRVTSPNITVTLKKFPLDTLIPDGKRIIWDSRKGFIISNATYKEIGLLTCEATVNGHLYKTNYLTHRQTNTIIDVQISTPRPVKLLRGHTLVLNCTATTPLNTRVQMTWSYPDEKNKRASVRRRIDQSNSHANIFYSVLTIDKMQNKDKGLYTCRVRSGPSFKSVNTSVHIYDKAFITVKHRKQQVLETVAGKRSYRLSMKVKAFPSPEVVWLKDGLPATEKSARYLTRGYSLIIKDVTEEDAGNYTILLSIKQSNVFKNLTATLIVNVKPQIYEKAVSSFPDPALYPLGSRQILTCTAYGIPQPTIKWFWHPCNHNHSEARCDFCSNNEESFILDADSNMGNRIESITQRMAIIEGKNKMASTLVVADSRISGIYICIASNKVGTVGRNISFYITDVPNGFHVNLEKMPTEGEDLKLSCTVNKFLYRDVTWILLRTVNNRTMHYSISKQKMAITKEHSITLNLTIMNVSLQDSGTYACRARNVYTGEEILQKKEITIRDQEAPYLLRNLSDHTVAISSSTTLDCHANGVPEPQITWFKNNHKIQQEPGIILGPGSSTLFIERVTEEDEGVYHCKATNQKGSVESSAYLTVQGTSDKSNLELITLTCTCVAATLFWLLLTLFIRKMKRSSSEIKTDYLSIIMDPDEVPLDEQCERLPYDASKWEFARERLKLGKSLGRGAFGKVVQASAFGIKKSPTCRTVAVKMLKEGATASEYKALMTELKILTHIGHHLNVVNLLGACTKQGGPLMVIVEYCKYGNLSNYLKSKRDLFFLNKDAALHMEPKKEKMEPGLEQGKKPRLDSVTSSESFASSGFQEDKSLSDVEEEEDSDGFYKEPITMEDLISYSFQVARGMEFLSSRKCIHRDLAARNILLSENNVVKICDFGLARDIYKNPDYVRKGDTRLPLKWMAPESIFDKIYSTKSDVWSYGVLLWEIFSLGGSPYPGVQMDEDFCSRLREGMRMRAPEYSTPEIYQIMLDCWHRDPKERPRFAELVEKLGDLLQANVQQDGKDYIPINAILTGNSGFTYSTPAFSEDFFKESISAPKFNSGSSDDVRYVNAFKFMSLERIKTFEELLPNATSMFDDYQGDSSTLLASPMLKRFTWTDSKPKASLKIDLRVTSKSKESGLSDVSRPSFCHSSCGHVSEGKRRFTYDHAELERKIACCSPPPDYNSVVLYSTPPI
FGFR2, sequence (P21802 22-821): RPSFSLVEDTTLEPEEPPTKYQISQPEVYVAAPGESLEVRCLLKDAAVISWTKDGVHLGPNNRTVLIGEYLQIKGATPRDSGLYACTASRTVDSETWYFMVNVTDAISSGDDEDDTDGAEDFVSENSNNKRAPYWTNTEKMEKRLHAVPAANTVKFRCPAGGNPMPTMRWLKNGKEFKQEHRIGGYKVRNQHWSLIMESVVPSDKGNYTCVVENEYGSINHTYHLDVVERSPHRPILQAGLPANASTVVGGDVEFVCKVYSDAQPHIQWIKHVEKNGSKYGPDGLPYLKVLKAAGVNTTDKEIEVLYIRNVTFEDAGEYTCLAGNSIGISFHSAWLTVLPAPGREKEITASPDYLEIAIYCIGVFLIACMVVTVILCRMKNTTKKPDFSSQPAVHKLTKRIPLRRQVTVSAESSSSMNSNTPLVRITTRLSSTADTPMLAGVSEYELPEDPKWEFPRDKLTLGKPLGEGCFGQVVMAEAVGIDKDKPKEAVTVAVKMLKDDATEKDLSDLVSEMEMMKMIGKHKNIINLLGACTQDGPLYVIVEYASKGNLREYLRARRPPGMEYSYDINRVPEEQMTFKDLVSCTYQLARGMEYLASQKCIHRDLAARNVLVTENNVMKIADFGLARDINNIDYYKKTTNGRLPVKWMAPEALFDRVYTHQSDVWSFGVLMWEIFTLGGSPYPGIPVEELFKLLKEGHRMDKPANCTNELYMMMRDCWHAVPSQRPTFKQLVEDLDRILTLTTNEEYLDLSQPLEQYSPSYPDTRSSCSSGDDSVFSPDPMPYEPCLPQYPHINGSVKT

Row | Compound | IC50 [1] [µM] | IC50 [2] [µM] | IC50 [4] [µM] | also measured
1 | CNC(=O)c1cc2c(Oc3c(F)cc(NC(=O)NC4CC4)c(Cl)c3F)ccnc2cc1OC [IIIb-01] | > 5 | > 5 | > 10 | IC50 (hERG potassium channels): > 30 µM; MTD at 14 days ([3]; 150 mg/kg, in rats, read-out: MTD toxicity dose): > 150 mg/kg; MTD ([3]; toxicity study for MTD, species not stated): 300 mg/kg
2 | CNC(=O)c1cc2c(Oc3c(F)cc(NC(=O)NC4CC4)c(F)c3F)ccnc2cc1OC [IIIb-02] | > 5 | > 5 | > 10 | –
3 | COc1cc2nccc(Oc3c(F)cc(NC(=O)NC4CC4)c(Cl)c3F)c2cc1C(=O)N(C)C [IIIb-03] | > 5 | > 5 | > 10 | –
4 | COc1cc2nccc(Oc3c(F)cc(NC(=O)NC4CC4)c(Cl)c3F)c2cc1C(=O)NC(C)C [IIIb-04] | > 5 | > 5 | > 10 | –
5 | COCCNC(=O)c1cc2c(Oc3c(F)cc(NC(=O)NC4CC4)c(Cl)c3F)ccnc2cc1OC [IIIb-05] | > 5 | > 5 | > 10 | –
6 | COc1cc2nccc(Oc3c(F)cc(NC(=O)NC4CC4)c(Cl)c3F)c2cc1C(=O)NCCF [IIIb-06] | 2.5 to 5 | 2.5 to 5 | > 10 | IC50 (hERG potassium channels): 18.7 µM; IC50 [5]: 2.5 to 5 µM; IC50 [6]: 5 to 10 µM; IC50 [7]: < 5 µM; IC50 [8]: > 10 µM; IC50 (prostatic cancer (PC-3)): > 10 µM
7 | COc1cc2nccc(Oc3c(F)cc(NC(=O)NC4CC4)c(F)c3F)c2cc1C(=O)NCC(F)F [IIIb-07] | > 5 | > 5 | > 10 | –
8 | COc1cc2nccc(Oc3c(F)cc(NC(=O)NC4CC4)c(Cl)c3F)c2cc1C(=O)NCCN(C)C [IIIb-10] | > 5 | > 5 | > 10 | –
9 | COc1cc2nccc(Oc3c(F)cc(NC(=O)NC4CC4)c(F)c3F)c2cc1C(=O)NC1CC1 [IIIb-11] | < 2.5 | < 2.5 | < 5 | –
10 | COc1cc2nccc(Oc3c(F)cc(NC(=O)NC4CC4)c(Cl)c3F)c2cc1C(=O)NC1CC1 [IIIb-12] | > 5 | > 5 | > 10 | –
11 | COc1cc2nccc(Oc3c(F)cc(NC(=O)NC4CC4)c(Cl)c3F)c2cc1C(=O)N(C1CC1)C1CC1 [IIIb-13] | > 5 | > 5 | > 10 | –
12 | COc1cc2nccc(Oc3c(F)cc(NC(=O)NC4CC4)c(Cl)c3F)c2cc1C(=O)N1CCC1 [IIIb-14] | > 5 | > 5 | > 10 | –
13 | COc1cc2nccc(Oc3c(F)cc(NC(=O)NC4CC4)c(F)c3F)c2cc1C(=O)NCCO [IIIb-15] | > 5 | > 5 | > 10 | –
14 | COc1cc2nccc(Oc3c(F)cc(NC(=O)NC4CC4)c(Cl)c3F)c2cc1C(=O)N[C@H](C)CO [IIIb-17] | > 5 | > 5 | > 10 | –
15 | COc1cc2nccc(Oc3c(F)cc(NC(=O)NC4CC4)c(Cl)c3F)c2cc1C(=O)N[C@@H](C)CO [IIIb-18] | > 5 | > 5 | > 10 | –
16 | COc1cc2nccc(Oc3c(F)cc(NC(=O)NC4CC4)c(Cl)c3F)c2cc1C(=O)NC(C)(C)CO [IIIb-19] | > 5 | > 5 | > 10 | –
17 | COc1cc2nccc(Oc3c(F)cc(NC(=O)NC4CC4)c(Cl)c3F)c2cc1C(=O)NC(CO)CO [IIIb-20] | > 5 | > 5 | > 10 | –
18 | COc1cc2nccc(Oc3c(F)cc(NC(=O)NC4CC4)c(Cl)c3F)c2cc1C(=O)NC[C@@H](O)CO [IIIb-21] | < 2.5 | < 2.5 | 5 to 10 | IC50 [5]: 2.5 to 5 µM; IC50 (RET): 0.005 to 0.01 µM; IC50 (FGFR2): 0.05 to 0.1 µM; IC50 [6]: 5 to 10 µM; IC50 [7]: > 10 µM; IC50 [8]: > 10 µM; IC50 (VEGFR3 (FLT4)): < 0.005 µM; IC50 (prostatic cancer (PC-3)): > 10 µM; IC50 (VEGFR1 (FLT1)): < 0.005 µM; IC50 (VEGFR2 (KDR)): < 0.005 µM
19 | COc1cc2nccc(Oc3c(F)cc(NC(=O)NC4CC4)c(Cl)c3F)c2cc1C(=O)NC[C@H](O)CO [IIIb-22] | 2.5 to 5 | 2.5 to 5 | > 10 | –
20 | COc1cc2nccc(Oc3c(F)cc(NC(=O)NC4CC4)c(Cl)c3F)c2cc1C(=O)NC1(CO)CC1 [IIIb-23] | > 5 | > 5 | > 10 | –
21 | COc1cc2nccc(Oc3c(F)cc(NC(=O)NC4CC4)c(Cl)c3F)c2cc1C(=O)N1CC(O)C1 [IIIb-24] | > 5 | > 5 | > 10 | –

Row | Compound | IC50 [1] [µM] | IC50 [2] [µM] | IC50 [4] [µM] | also measured
22 | COc1cc2nccc(Oc3c(F)cc(NC(=O)NC4CC4)c(Cl)c3F)c2cc1C(=O)N1CC[C@@H](O)C1 [IIIb-25] | > 5 | > 5 | > 10 | –
23 | COc1cc2nccc(Oc3c(F)cc(NC(=O)NC4CC4)c(Cl)c3F)c2cc1C(=O)N1CC[C@H](O)C1 [IIIb-26] | < 2.5 | < 2.5 | < 5 | –
24 | COc1cc2nccc(Oc3c(F)cc(NC(=O)NC4CC4)c(Cl)c3F)c2cc1C(=O)N1CCN(C)CC1 [IIIb-27] | > 5 | > 5 | > 10 | –
25 | COc1cc2nccc(Oc3c(F)cc(NC(=O)NC4CC4)c(Cl)c3F)c2cc1C(=O)NC1CCN(C)CC1 [IIIb-28] | > 5 | > 5 | > 10 | –
26 | COc1cc2nccc(Oc3c(F)cc(NC(=O)NC4CC4)c(Cl)c3F)c2cc1C#N [IIIb-29] | > 5 | > 5 | > 10 | –
27 | COc1cc2nccc(Oc3c(F)cc(NC(=O)NC4CC4)c(Cl)c3OC)c2cc1C#N [IIIb-30] | > 5 | > 5 | > 10 | –
28 | COc1cc2nccc(Oc3c(F)cc(NC(=O)NC4CC4)c(Cl)c3F)c2cc1C(=O)NC1(C(F)(F)F)CC1 [IIIb-41] | > 5 | > 5 | > 10 | –
29 | COc1cc2nccc(Oc3c(F)cc(NC(=O)NC4CC4)c(Cl)c3F)c2cc1C(=O)NC(CO)C(F)(F)F (stereo not shown) [IIIb-42] | > 5 | > 5 | > 10 | –
30 | COc1cc2nccc(Oc3c(F)cc(NC(=O)NC4CC4)c(Cl)c3F)c2cc1C(=O)NC(C)C#N (stereo not shown) [IIIb-46] | > 5 | > 5 | > 10 | –
31 | COc1cc2nccc(Oc3c(F)cc(NC(=O)NC4CC4)c(Cl)c3F)c2cc1C(=O)NC(C)(C)C#N [IIIb-47] | > 5 | > 5 | > 10 | –
32 | COc1cc2nccc(Oc3c(F)cc(NC(=O)NC4CC4)c(Cl)c3F)c2cc1C(=O)NC1(C#N)CC1 [IIIb-48] | > 5 | > 5 | > 10 | –
33 | COc1cc2nccc(Oc3c(F)cc(NC(=O)NC4CC4)c(Cl)c3F)c2cc1C(=O)NCC1(C#N)CC1 [IIIb-49] | > 5 | > 5 | > 10 | –
34 | COc1cc2nccc(Oc3c(F)cc(NC(=O)NC4CC4)c(Cl)c3F)c2cc1C(=O)NCCN [IIIb-51] | > 5 | > 5 | > 10 | –
35 | COc1cc2nccc(Oc3c(F)cc(NC(=O)NC4CC4)c(Cl)c3F)c2cc1C(=O)Nc1cn[nH]c1 [IIIb-52] | > 5 | > 5 | > 10 | –
36 | COc1cc2nccc(Oc3c(F)cc(NC(=O)NC4CC4)c(Cl)c3F)c2cc1C(=O)Nc1cnn(C)c1 [IIIb-53] | > 5 | > 5 | > 10 | –
37 | COc1cc2nccc(Oc3c(F)cc(NC(=O)NC4CC4)c(Cl)c3F)c2cc1C(=O)Nc1cncn1C [IIIb-54] | > 5 | > 5 | > 10 | –
38 | CN(C)CCOc1cc2nccc(Oc3c(F)cc(NC(=O)NC4CC4)c(Cl)c3F)c2cc1C(N)=O [IIIb-59] | > 5 | > 5 | > 10 | –
39 | COc1cc2nccc(Oc3ccc(NC(=O)NC4CC4)c(Cl)c3)c2cc1C(N)=O [Lenvatinib, lenvatinib, reference compound] | > 5 | > 5 | > 10 | IC50 [5]: > 5 µM; IC50 (FGFR2): 0.05 to 0.1 µM; IC50 [6]: 5 to 10 µM; IC50 [7]: > 10 µM; IC50 [8]: 5 to 10 µM; IC50 (VEGFR3 (FLT4)): < 0.005 µM; IC50 (prostatic cancer (PC-3)): > 10 µM; IC50 (VEGFR1 (FLT1)): 0.005 to 0.01 µM
40 | CNC(=O)c1cc(Oc2ccc(NC(=O)Nc3ccc(Cl)c(C(F)(F)F)c3)c(F)c2)ccn1 [Regorafenib, regorafenib, reference compound] | > 5 | > 5 | > 10 | IC50 (hERG potassium channels): 27 µM; IC50 [5]: > 5 µM; IC50 [6]: > 10 µM; IC50 [7]: > 10 µM; IC50 [8]: 5 to 10 µM; IC50 (prostatic cancer (PC-3)): > 10 µM
41 | CNC(=O)c1cc(Oc2ccc(NC(=O)Nc3ccc(Cl)c(C(F)(F)F)c3)cc2)ccn1 [Sorafenib, sorafenib, reference compound] | – | – | – | IC50 (hERG potassium channels): > 10 µM
